According to patent US8686152B2, “4,4-disubstituted piperidine derivatives useful as inhibitors of dipeptidyl peptidase-1 (DPP-1)” (Janssen Pharmaceutica NV, priority 2010, dated 2014):
Structures can show the parent of a compound that is named as a salt.

Each molecule was assayed against T1, recombinant human DPP-1 (Cathepsin C) (Homo sapiens, UniProt P53634) (assay: DPP-1 Inhibition Assay (In Vitro), fluorogenic substrate GR-AMC). Conditions: 0.15 nM DPP-1, 10 uM GR-AMC, pH 7.0, room temperature; average value where tested multiple times.
T1 construct: made in house
T1 sequence (P53634 25-463): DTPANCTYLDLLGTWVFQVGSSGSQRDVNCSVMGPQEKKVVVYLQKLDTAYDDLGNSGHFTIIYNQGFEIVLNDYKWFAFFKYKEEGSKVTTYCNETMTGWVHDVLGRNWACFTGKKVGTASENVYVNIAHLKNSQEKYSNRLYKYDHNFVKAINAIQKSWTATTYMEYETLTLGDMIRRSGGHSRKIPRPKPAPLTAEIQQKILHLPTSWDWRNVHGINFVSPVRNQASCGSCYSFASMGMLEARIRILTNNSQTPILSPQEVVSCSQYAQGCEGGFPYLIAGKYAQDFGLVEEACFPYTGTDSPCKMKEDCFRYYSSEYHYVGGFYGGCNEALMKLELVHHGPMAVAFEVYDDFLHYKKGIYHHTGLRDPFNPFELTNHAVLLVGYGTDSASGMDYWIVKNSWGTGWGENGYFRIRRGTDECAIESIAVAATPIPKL
Format: biochemical
Description: Test compounds were assessed for DPP-1 (Cathepsin C) inhibitory activity using a fluorogenic substrate, GR-AMC (Glycine-Arginine-amino-4-methylcoumarin, Bachem, I-1215). The amount of amino-methylcoumarin released is proportional to the DPP-1 activity, and the reaction is monitored kinetically with a Molecular Devices plate reader using black 96-well plates.
All compounds were tested under room temperature conditions. The assay buffer consisted of 50 mM HEPES, pH 7.0, 100 mM NaCl, 2 mM glutathione (GSH), and 0.002% TWEEN 20. GSH and TWEEN 20 were added to the buffer fresh daily. Just prior to use, an in-house preparation of recombinant human DPP-1 (240 μM stock, MW 49.6 kD) was diluted 600-fold in assay buffer containing fresh 2 mM dithiothreitol (DTT) to activate the enzyme, then diluted into assay buffer (without DTT) 133-fold for a DPP-1 working solution of 3 nM. Test compounds were diluted in DMSO for 20× their final assay concentrations.
Additions to a 96-well black Costar 3915 plates were as follows: 90 μL of 11 μM GR-AMC, 5 μL test compound (followed by mixing), and 5 μL 3 nM DPP-1 to start the reaction. Fluorescent reactions were monitored kinetically at 360 nm excitation, 440 nm emission on a Molecular Devices Spectramax XPS reader. The Softmax Pro software of the reader determined the initial velocity of the selected data (the first 3-5 minutes of the reaction), and the best linear regression fit of the initial kinetic data. Final assay conditions were 0.15 nM DPP-1, 10 uM GR-AMC, 50 mM HEPES, pH 7.0, 100 mM NaCl, 2 mM GSH, 0.002% TWEEN 20, 1 uM DTT, 5.0% DMSO. Initial velocity rates were plotted vs. test compound concentration by use of a four-parameter logistics equation (nonlinear regression, sigmoidal dose-response (variable slope), with fixed Hill (1.0) using GraphPad Prism® software for determination of DPP-1 IC50. Within-run assay coefficient of variation (CV) was generally <10%; between-run CV <20%.
Representative compounds of the present invention were tested according to the procedure as described above, with results as listed in Table 5, below.
For `N[C@@H](Cc1c[nH]cn1)C(=O)N1CCC(Cc2ccccc2)(C(=O)OCC2CCCCC2)CC1` [Compound 12], the IC50 was ~5 µM.
`N[C@@H](Cc1cccs1)C(=O)N1CCC(Cc2cccc(I)c2)(C(=O)NC2CCCCC2)CC1` [Compound 96] was tested, and the IC50 was 0.084 µM.
`N[C@@H](Cc1c[nH]cn1)C(=O)N1CCC(C(=O)NC2CCCCC2)(c2ccccc2)CC1` [Compound 75] showed an IC50 of 2.8 µM.
In the case of `N[C@@H](Cc1cc(Br)cs1)C(=O)N1CCC(Cc2ccc(I)cc2)(C(=O)NC2CCCCC2)CC1` [Compound 92], the IC50 is reported as 5.6 µM.
`N[C@@H](Cc1cccs1)C(=O)N1CCC(Cc2ccc(C(=O)N3CCOCC3)cc2)(C(=O)NC2CCCCC2)CC1` [Compound 57] was tested, and the IC50 was 0.0363 µM.
For `CC[C@H](N)C(=O)N1CCC(Cc2ccc(Cl)cc2)(C(=O)OCC2CCCCC2)CC1` [Compound 13], the IC50 was 4.3 µM.
With `CC[C@H](N)C(=O)N1CCC(Cc2cccc(OC)c2)(C(=O)NC2CCCCC2)CC1` [Compound 83] the IC50 was 9.5 µM.
For `N#CC[C@H](N)C(=O)N1CCC(Cc2ccc(-c3ccccc3)cc2)(C(=O)NC2CCCCC2)CC1` [Compound 36], the IC50 was 0.6 µM.
In the case of `Cc1ccc(C2(C(=O)NCC3CCOCC3)CCN(C(=O)[C@@H](N)Cc3cccs3)CC2)cc1` [Compound 130], the IC50 is reported as 0.041 µM.
`COC(=O)C1(Cc2ccc(-c3ccccc3)cc2)CCN(C(=O)[C@@H](N)Cc2cccs2)CC1` [Compound 1] gave an IC50 of 1.8 µM.
`N[C@@H](Cc1ccccc1)C(=O)N1CCC(Cc2ccc(-c3ccccc3)cc2)(C(=O)NCC2CCCCC2)CC1` [Compound 108] showed an IC50 of ~4 µM.
With `N#Cc1ccccc1CC1(C(=O)NC2CCCCC2)CCN(C(=O)[C@@H](N)Cc2cccs2)CC1` [Compound 82] the IC50 was 0.11 µM.
`N[C@@H](Cc1cccs1)C(=O)N1CCC(Cc2cccnc2)(C(=O)OCC2CCCCC2)CC1` [Compound 24] showed an IC50 of 0.099 µM.
Molecule `N[C@@H](Cc1cccs1)C(=O)N1CCC(Cc2cccc(-c3ccc(O)nc3)c2)(C(=O)NC2CCCCC2)CC1` [Compound 98] has an IC50 of 0.045 µM.
Molecule `N[C@@H](Cc1cccs1)C(=O)N1CCC(C(=O)NC[C@H]2CC[C@H](C(=O)O)CC2)(c2ccccc2)CC1` [Compound 112] has an IC50 of 0.2 µM.
In the case of `N[C@@H](Cc1cccs1)C(=O)N1CCC(Cc2ccc(-c3nnn[nH]3)cc2)(C(=O)NCC2CCCCC2)CC1` [Compound 127], the IC50 is reported as 0.083 µM.
In the case of `N#Cc1ccc(-c2ccc(CC3(C(=O)NC4CCCCC4)CCN(C(=O)[C@@H](N)Cc4cccs4)CC3)cc2)cc1` [Compound 99], the IC50 is reported as 0.046 µM.
Work on `N[C@@H](Cc1cccs1)C(=O)N1CCC(C(=O)NC2CCCCC2)(c2ccccc2)CC1` [Compound 69] yielded an IC50 of 0.073 µM.
Molecule `N[C@@H](Cc1cccs1)C(=O)N1CCC(Cc2ccc(C(=O)N3CCCC3)cc2)(C(=O)NC2CCCCC2)CC1` [Compound 58] has an IC50 of 0.073 µM.
Molecule `N[C@@H](Cc1cccs1)C(=O)N1CCC(Cc2ccc(-c3ccc(C(=O)O)cc3)cc2)(C(=O)NC2CCCCC2)CC1` [Compound 52] has an IC50 of 0.1 µM.
For `CSCC[C@H](N)C(=O)N1CCC(Cc2ccc(I)cc2)(C(=O)NC2CCCCC2)CC1` [Compound 73], the IC50 was 0.25 µM.
`COC(=O)[C@H]1CC[C@H](CNC(=O)C2(c3ccccc3)CCN(C(=O)[C@@H](N)Cc3cccs3)CC2)CC1` [Compound 110] gave an IC50 of 0.17 µM.
Work on `N[C@@H](Cc1cccs1)C(=O)N1CCC(Cc2ccc(-c3cncnc3)cc2)(C(=O)NC2CCCCC2)CC1` [Compound 43] yielded an IC50 of 0.029 µM.
`N[C@@H](Cc1cccs1)C(=O)N1CCC(Cc2ccc(-c3cccnc3)cc2)(C(=O)NC2CCCCC2)CC1` [Compound 50] was tested, and the IC50 was 0.035 µM.
`CC[C@H](N)C(=O)N1CCC(C(=O)NC2CCCCC2)(c2ccccc2)CC1` [Compound 70] gave an IC50 of 9.4 µM.
For `N[C@@H](Cc1cccs1)C(=O)N1CCC(Cc2cccc(-c3cccc(C(=O)O)c3)c2)(C(=O)NC2CCCCC2)CC1` [Compound 101], the IC50 was 0.14 µM.
For `N[C@@H](Cc1cccs1)C(=O)N1CCC(C(=O)NCC2CCOCC2)(c2ccccc2)CC1` [Compound 104], the IC50 was 0.076 µM.
Work on `N[C@@H](Cc1cccs1)C(=O)N1CCC(Cc2ccc(-c3ccccc3)cc2)(C(=O)NC2CCCCC2)CC1` [Compound 8] yielded an IC50 of 0.035 µM.
Work on `CC[C@H](N)C(=O)N1CCC(Cc2ccc(C#N)cc2)(C(=O)OCC2CCCCC2)CC1` [Compound 17] yielded an IC50 of 4.4 µM.
`N[C@@H](Cc1cccs1)C(=O)N1CCC(C(=O)N[C@H]2CC[C@H](C(=O)O)CC2)(c2ccccc2)CC1` [Compound 115] showed an IC50 of 0.2 µM.
`N[C@@H](Cc1c[nH]cn1)C(=O)N1CCC(Cc2cccnc2)(C(=O)NC2CCCCC2)CC1` [Compound 68] was tested, and the IC50 was 0.91 µM.
In the case of `N[C@@H](Cc1cccs1)C(=O)N1CCC(Cc2cccc(-c3ccc(C(F)(F)F)cc3)c2)(C(=O)NC2CCCCC2)CC1` [Compound 100], the IC50 is reported as 0.12 µM.
`N[C@@H](Cc1cccs1)C(=O)N1CCC(Cc2ccc(-c3ccc(C(F)(F)F)cc3)cc2)(C(=O)NC2CCCCC2)CC1` [Compound 53] gave an IC50 of 0.14 µM.
Molecule `CC(=O)Nc1ccccc1-c1ccc(CC2(C(=O)NC3CCCCC3)CCN(C(=O)[C@@H](N)Cc3cccs3)CC2)cc1` [Compound 45] has an IC50 of 0.052 µM.
`N[C@@H](Cc1cccs1)C(=O)N1CCC(Cc2ccc(-c3ccccc3)cc2)(C(=O)O)CC1` [Compound 2] was tested, and the IC50 was > 10 µM.
Molecule `N[C@@H](Cc1cccs1)C(=O)N1CCC(C(=O)N[C@H]2CC[C@H](O)CC2)(c2ccccc2)CC1` [Compound 85] has an IC50 of 0.11 µM.
In the case of `N[C@@H](Cc1c[nH]cn1)C(=O)N1CCC(Cc2cccnc2)(C(=O)OCC2CCCCC2)CC1` [Compound 25], the IC50 is reported as 1.8 µM.
Molecule `Nc1ccc(CC2(C(=O)NC3CCCCC3)CCN(C(=O)[C@@H](N)Cc3cccs3)CC2)cc1` [Compound 95] has an IC50 of 0.063 µM.
In the case of `C[C@@H](O)[C@H](N)C(=O)N1CCC(C(=O)NCC2CCCCC2)(c2ccccc2)CC1` [Compound 139], the IC50 is reported as 2.6 µM.
`N[C@@H](Cc1cccs1)C(=O)N1CCC(Cc2ccc(-c3ccccc3)cc2)(C(=O)N2CCCCC2)CC1` [Compound 4] showed an IC50 of 0.43 µM.
`N[C@@H](Cc1cccs1)C(=O)N1CCC(Cc2ccncc2)(C(=O)NCC2CCOCC2)CC1` [Compound 121] gave an IC50 of 0.13 µM.
Molecule `CC[C@H](N)C(=O)N1CCC(Cc2ccncc2)(C(=O)NC2CCCCC2)CC1` [Compound 72] has an IC50 of 5 µM.
Work on `N[C@@H](Cc1cccs1)C(=O)N1CCC(Cc2ccc(-c3ccccc3)cc2)(C(=O)NCC2CCCCC2)CC1` [Compound 3, (S)-1-(2-amino-3-(thiophen-2-yl)propanoyl)-4-(biphenyl-4-ylmethyl)-N-(cyclohexylmethyl)piperidine-4-carboxamide hydrochloride] yielded an IC50 of 0.084 µM.
Molecule `N[C@@H](Cc1cccs1)C(=O)N1CCC(C(=O)N[C@H]2CC[C@H](O)CC2)(c2cc(C(F)(F)F)cc(C(F)(F)F)c2)CC1` [Compound 120] has an IC50 of 0.23 µM.
With `N[C@@H](Cc1cccs1)C(=O)N1CCC(Cc2ccc(F)cc2F)(C(=O)OCC2CCCCC2)CC1` [Compound 27] the IC50 was 0.22 µM.
For `N[C@@H](Cc1ccco1)C(=O)N1CCC(Cc2ccc(-c3ccccc3)cc2)(C(=O)NC2CCCCC2)CC1` [Compound 37], the IC50 was 0.23 µM.
With `CC[C@H](N)C(=O)N1CCC(Cc2ccc(I)cc2)(C(=O)NC2CCCCC2)CC1` [Compound 77] the IC50 was 2.3 µM.
`N[C@@H](Cc1c[nH]cn1)C(=O)N1CCC(Cc2ccc(-c3ccccc3)cc2)(C(=O)NCC2CCCCC2)CC1` [Compound 9] gave an IC50 of 0.93 µM.
For `CC[C@H](N)C(=O)N1CCC(Cc2cccnc2)(C(=O)OCC2CCCCC2)CC1` [Compound 23], the IC50 was 8.2 µM.
Molecule `N#Cc1ccc(-c2ccc(CC3(C(=O)NC4CCCCC4)CCN(C(=O)[C@@H](N)Cc4cccs4)CC3)cc2)cc1` [Compound 51] has an IC50 of 0.035 µM.
In the case of `N[C@@H](Cc1cccs1)C(=O)N1CCC(Cc2ccc(Cl)cc2)(C(=O)OCC2CCCCC2)CC1` [Compound 14], the IC50 is reported as 0.35 µM.
`COc1ncccc1-c1ccc(CC2(C(=O)NC3CCCCC3)CCN(C(=O)[C@@H](N)Cc3cccs3)CC2)cc1` [Compound 46] was tested, and the IC50 was 0.038 µM.
With `CC[C@H](N)C(=O)N1CCC(Cc2ccc(F)cc2F)(C(=O)OCC2CCCCC2)CC1` [Compound 26] the IC50 was 6.1 µM.
`N[C@@H](Cc1cccs1)C(=O)N1CCC(Cc2ccncc2)(C(=O)OCC2CCCCC2)CC1` [Compound 22] gave an IC50 of 0.093 µM.
In the case of `N[C@@H](Cc1cccs1)C(=O)N1CCC(Cc2ccc(C(F)(F)F)cc2)(C(=O)OCC2CCCCC2)CC1` [Compound 19], the IC50 is reported as 0.4 µM.
With `N[C@@H](Cc1c[nH]cn1)C(=O)N1CCC(Cc2ccc([N+](=O)[O-])cc2)(C(=O)NC2CCCCC2)CC1` [Compound 79] the IC50 was 0.62 µM.
`N[C@@H](Cc1c[nH]cn1)C(=O)N1CCC(Cc2ccc(C(F)(F)F)cc2)(C(=O)OCC2CCCCC2)CC1` [Compound 20] showed an IC50 of 3.1 µM.
`N[C@@H](Cc1cccs1)C(=O)N1CCC(Cc2cccc(-c3ccccc3)c2)(C(=O)OCC2CCCCC2)CC1` [Compound 30] was tested, and the IC50 was 0.88 µM.
Work on `NC(=O)c1ccc(CC2(C(=O)NC3CCCCC3)CCN(C(=O)[C@@H](N)Cc3cccs3)CC2)cc1` [Compound 61] yielded an IC50 of 0.047 µM.
